Common to all, as to type: cell-based
The subject of test [1] is incristine resistant human ileocecum carcinoma cell HCT-8/VCT. In words: SRB anti-proliferative assay, drug-resistant HCT-8/VCT. Particulars: HCT8/VCT, vincristine-resistant HCT-8/VCT, SRB, read-out: Anti-proliferative IC50, HCT-8/VCT. The procedure: (§1) The present example evaluated the anti-tumor activity of the molecules provided by the present invention. The present example mainly used a method with SRB (sulforhodamine B) dying, in which proteins in the cell were stained with SRB dye to determine protein content in the cell so as to characterize cell growth density. Firstly, the test compound was formulated into a stock solution (10 mM), which was stored at 4° C. in a refrigerator. Prior to beginning the assay, the stock solution was diluted with DMSO into a series of different concentrations. The required concentrations were obtained by diluting with complete growth medium. Well growing cells were seeded in a 96-well plate (5000 cells/well, 100 uL) and cultured in an incubator at 37° C., 5% CO2, and 90% RH. 24 h later, the prepared compound solution (100 μL) was slowly added to cell solution in the 96-well plate, and the well with DMSO (final concentration 0.5%) instead of the drug was used as a drug free control. The plate was incubated for 48 h. In addition, a day 0 plate that was drug free was directly detected after cell seeded in the plate for 24 h. The 96-well plate was taken out and added with trichloroacetic acid (50 μL, final concentration 10%). The plate was incubated at 4° C. for 1 h to fix the cells.
(§2) The plate was washed with ultrapure water and air-dried. The plate was then stained with SRB dye (0.4% in 1% acetic acid, 100 μL) for 30 min at room temperature. The plate was then washed with 1% acetic acid and then air-dried. A Tris base solution (100 μL, 10 mM, pH10.4) was added, after which the plate was gently shaken for 1 h on an orbital shaker to ensure that the dyes were completed dissolved. The optical density (OD) was recorded on a TECAN Infinite M200 Pro multimode reader at 515 nm. The cell growth (% of control)=(OD value of wells added with drug−mean OD value of Day 0 plate)/(OD value of DMSO drug-free control well−mean OD value of Day 0 plate)*100.
(§3) We also evaluated the anti-proliferation activities of selected compounds against drug-resistant cancer cell lines.

For test [2], the system named is Paclitaxel-resistant human ovarian carcinoma cell A2780/TAX. In words: SRB anti-proliferative assay, drug-resistant A2780/TAX. Particulars: paclitaxel-resistant A2780/TAX, SRB, read-out: Anti-proliferative IC50, A2780/TAX. As for the experimental part: as §1, §2, §3
Test [3] concerns human ovary cancer cells A2780. In words: SRB anti-proliferative assay, A2780. Conditions: A2780, SRB, 48 h, read-out: Anti-proliferative IC50, A2780. As for the experimental part: as §1, §2
Test [4] concerns human colon cancer cells SW480. In words: SRB anti-proliferative assay, SW480. Conditions: SW480, SRB, 48 h, read-out: Anti-proliferative IC50, SW480. As for the experimental part: as §1, §2
Test [5] deals with human liver cancer cell HepG2. As to the kind of experiment: SRB anti-proliferative assay, HepG2. Conditions: HepG2, SRB, 48 h, read-out: Anti-proliferative IC50, HepG2. The procedure:
as §1, §2

Test [6] relates to human lung cancer cells A549. As to the kind of experiment: SRB anti-proliferative assay, A549. Conditions: A549, SRB, 48 h, read-out: Anti-proliferative IC50, A549. The procedure: as §1, §2
Test [7] deals with human breast cancer cells MCF7. In words: SRB anti-proliferative assay, MCF-7. Particulars: MCF7, MCF-7, SRB, 48 h, read-out: Anti-proliferative IC50, MCF-7. As for the experimental part:
as §1, §2

In test [8] the test system is human nasopharyngeal carcinoma cells CNE2. In words: SRB anti-proliferative assay, CNE2. Particulars: CNE-2, CNE2, SRB, 48 h, read-out: Anti-proliferative IC50, CNE2. The procedure:
as §1, §2

Test [9] deals with cis-platinum resistant human lung cancer cell A549/CDDP. In words: SRB anti-proliferative assay, drug-resistant A549/CDDP. Conditions: cis-platinum resistant A549/CDDP, SRB, read-out: Anti-proliferative IC50, A549/CDDP. As for the experimental part:
as §1, §2, §3

The subject of test [10] is human colon cancer cells HCT8. In words: SRB anti-proliferative assay, HCT-8. Particulars: HCT-8, SRB, 48 h, read-out: Anti-proliferative IC50, HCT-8. As for the experimental part: as §1, §2
Test [11] concerns doxorubicin resistant breast cancer cell MCF-7/DOX. In words: SRB anti-proliferative assay, drug-resistant MCF-7/DOX. Conditions: Homo sapiens, MCF7-DOX; doxorubicin resistant MCF-7/DOX, SRB; read-out: Anti-proliferative IC50, MCF-7/DOX. As for the experimental part: as §1, §2, §3

`N#Cc1ccc(/C=C/C(=O)c2ccccc2-c2cccc(F)c2)cc1` [compound 14, (E)-1-(3′-Fluoro[1,1′-biphenyl]-2-yl)-3-(4-cyanophenyl)prop-2-en-1-one]: the IC50 turned out to be 386 nM in test [1]; 375 nM in test [2]; 122 nM in [3]; 43 nM in [4]; 65 nM in [5]; 88 nM in test [6]. Moreover, the IC50 in [7] was 128 nM; in [8], 61 nM; in [9], 468 nM; in test [10] it was 102 nM; in [11], 132 nM.

Regarding `CN(C)c1ccc(/C=C/C(=O)c2ccccc2-c2cccc(F)c2)cc1Br` [compound 15, (E)-1-(3′-Fluoro[1,1′-biphenyl]-2-yl)-3-(3-bromo-4-(Dimethylamino)phenyl)prop-2-en-1-one], the IC50 in test [1] stood at 112 nM; in test [2], 95 nM; in test [3], 89 nM; in [4] it was 87 nM; in test [5], 44 nM; in [6], 88 nM. The IC50 in [7] came to 124 nM; in test [8], 46 nM; in test [9], 118 nM; in test [10], 99 nM; in test [11], 75 nM.

Consider `O=C(/C=C/c1ccc(N2CCCC2)cc1)c1ccccc1-c1cccc(F)c1` [compound 16, (E)-1-(3′-Fluoro[1,1′-biphenyl]-2-yl)-3-(4-pyrrolidine-1-yl)prop-2-en-1-one], for which the IC50 in [1] amounted to 166 nM; in test [2], 149 nM; in [3] it was 106 nM; in test [4] it was 52 nM; in [5] it was 71 nM; in test [6] it was 86 nM. For the same compound, the IC50 in test [7] turned out to be 106 nM; in test [8], 36 nM; in test [9] it was 135 nM; in test [10] it was 123 nM; in test [11], 75 nM.

Turning to `O=C(/C=C/c1ccc(N(c2ccccc2)c2ccccc2)cc1)c1ccccc1-c1cccc(F)c1` [compound 17, (E)-1-(3′-Fluoro[1,1′-biphenyl]-2-yl)-3-(4-(diphenylamino)phenyl)prop-2-en-1-one], the IC50 came to 176 nM in test [1]; 158 nM in [2]; 133 nM in test [3]; 51 nM in [4]; 93 nM in test [5]; 74 nM in [6]. The IC50 in test [7] was determined as 123 nM; in test [8], 43 nM; in test [9] it was 165 nM; in test [10] it was 137 nM; in [11], 66 nM.

Regarding `O=C(O)c1ccc(/C=C/C(=O)c2ccccc2-c2cccc(F)c2)cc1` [compound 18], the IC50 in test [1] was 420 nM; in [2], 496 nM; in [3], 47 nM; in test [4] it was 47 nM; in test [5], 23 nM; in test [6], 65 nM. The IC50 is 116 nM in test [7]; 33 nM in test [8]; 430 nM in test [9]; 68 nM in [10]; 38 nM in test [11].

Consider `Nc1cccc(/C=C/C(=O)c2ccccc2-c2cccc(F)c2)c1` [compound 19, (E)-1-(3′-Fluoro[1,1′-biphenyl]-2-yl)-3-(3-aminophenyl)prop-2-en-1-one], for which the IC50 in test [1] turned out to be 157 nM; in [2], 143 nM; in test [3] it was 38 nM; in test [4], 57 nM; in [5], 34 nM; in test [6], 64 nM. The IC50 in [7] was 92 nM; in test [8] it was 35 nM; in [9], 232 nM; in [10] it was 42 nM; in test [11], 43 nM.

As for `O=C(O)c1cccc(/C=C/C(=O)c2ccccc2-c2cccc(F)c2)c1` [compound 20], the IC50 is 119 nM in test [1]; 120 nM in [2]; 35 nM in [3]; 49 nM in [4]; 29 nM in test [5]; 45 nM in [6]. The IC50 turned out to be 79 nM in [7]; 21 nM in test [8]; 221 nM in [9]; 28 nM in [10]; 54 nM in test [11].

Take `O=C(/C=C/c1ccc(O)c(S(=O)(=O)O)c1)c1ccccc1-c1cccc(F)c1` [compound 21, (E)-5-(3-(3′-Fluoro[1,1′-biphenyl]-2-yl)-3-oxoprop-1-en-1-yl)-2-Hydroxybenzenesulfonic acid]: the IC50 turned out to be 69 nM in test [1]; 123 nM in test [2]; 16 nM in test [3]; 16 nM in [4]; 18 nM in [5]; 18 nM in test [6]. In addition, the IC50 in [7] came out at 49 nM; in [8], 19 nM; in [9], 74 nM; in [10], 20 nM; in test [11] it was 11 nM.

Take `O=C(/C=C/c1ccc(O)c(S(=O)(=O)O)c1)c1ccccc1-c1ccc(F)cc1` [compound 22, (E)-5-(3-(4′-Fluoro[1,1′-biphenyl]-2-yl)-3-oxoprop-1-en-1-yl)-2-Hydroxybenzenesulfonic acid]: the IC50 came to 81 nM in test [1]; 136 nM in test [2]; 39 nM in [3]; 19 nM in test [4]; 20 nM in test [5]; 38 nM in test [6]. Besides, the IC50 amounted to 70 nM in [7]; 23 nM in test [8]; 63 nM in test [9]; 35 nM in [10]; 21 nM in test [11].

In the case of `COc1ccc(/C=C/C(=O)c2ccccc2-c2cccc(F)c2)cc1S(=O)(=O)O` [compound 23, (E)-5-(3-(3′-Fluoro[1,1′-biphenyl]-2-yl)-3-oxoprop-1-en-1-yl)-2-methoxy benzenesulfonic acid], the IC50 in test [1] was 62 nM; in [2] it was 53 nM; in [3], 10 nM; in [4], 10 nM; in test [5] it was 12 nM; in test [6], 14 nM. Moreover, the IC50 in [7] was found to be 42 nM; in test [8], 16 nM; in test [9], 42 nM; in test [10], 12 nM; in [11], 3 nM.

For the compound `COc1ccc(/C=C/C(=O)c2ccccc2-c2ccc(F)cc2)cc1S(=O)(=O)O` [compound 24, (E)-5-(3-(4′-Fluoro[1,1′-biphenyl]-2-yl)-3-oxoprop-1-en-1-yl)-2-methoxy benzenesulfonic acid], the IC50 in test [1] came out at 85 nM; in test [2], 61 nM; in [3] it was 15 nM; in [4] it was 14 nM; in test [5], 13 nM; in [6], 20 nM. Further, the IC50 in test [7] was found to be 55 nM; in test [8], 18 nM; in [9] it was 93 nM; in test [10], 17 nM; in test [11], 8 nM.
